# Source: patent publication US7297759B2, “Peptides for increasing transfection efficiency” (Welgene, Inc., priority 2002, dated 2007)
# Key:
# HeLa cells = assay: Luciferase transfection efficiency of triple complex in HeLa cells; type: cell-based; conditions: for luciferase activity for various peptides: DNA:peptide:DP liposomes 1:4:4 (w/w/w), compared to Tat and Sc-Tat control peptides, FIG. 9A
# Description: In order to test transfection efficiency, the TatC peptide was precomplexed with the pcDNA3-luciferase vector DNA in 50 ul OPTI-MEM medium and was incubated for 5 minutes at room temperature. The DP liposomes was prepared in a 50 ul OPTI-MEM medium and added to the preformed complex of the TatC peptide and pcDNA3-luciferase vector DNA. The ratio of each component in the triple complex of the TatC peptide/DNA/DP liposomes was adjusted to 3:1:5 respectively. The triple complex of TatC peptide/DNA/DP liposomes was incubated for 10 minutes at room temperature and used for transfection into cells. After 5 hr incubation, 300 ul/well of the OPTI-MEM medium containing 20% Fetal Bovine Serum (FBS) was added into each transfection well. Further incubation for 16 hours was carried out before measuring transfection efficiency in luciferase activity using a luciferase assay kit (Promega, USA). To check luciferase activity of the pcDNA3-luciferase vector DNA, the following procedure was adopted. Cells were washed with PBS buffer (without Mg^2+ or Ca^2+) and lysed in 100 μl/well of 1×CCLR solution (Cell culture Lysis Reagent, 25 mM Tris-phosphate [pH 7.8], 2 mM DTT, 2 mM 1,2-diaminocyclohexane-N,N,N′,N′-tetraacetic acid, 10% glycerol, 1% Triton X-100). Cell lysates was centrifuged at 12,000×g for 1 minute and 50 ul supernatant was carefully harvested without disturbing the cell pellet. The cell lysates then mixed with 20 μl Luciferase Assay reagent. Luciferase activity was tested using a luminometer (Berthold detection systems, Sirius, Germany). As a negative control, the DP liposomes alone. […]
# To examine transfection efficiency in the presence or absence of serum, the TatC/DNA(pcDNA3-luc)/DP liposomes triple complex of the present invention was transfected into HeLa and K562 cells in a medium with or without 10% FBS (FIG. 13A and B). A complex of DNA and liposomes was used as a negative control.
# cells = assay: Luciferase transfection efficiency of TatC peptide/DNA/cationic liposome triple complex (FIG. 1, FIG. 2); type: cell-based
# Description: In order to test transfection efficiency, the TatC peptide was precomplexed with the pcDNA3-luciferase vector DNA in 50 ul OPTI-MEM medium and was incubated for 5 minutes at room temperature. The DP liposomes was prepared in a 50 ul OPTI-MEM medium and added to the preformed complex of the TatC peptide and pcDNA3-luciferase vector DNA. The ratio of each component in the triple complex of the TatC peptide/DNA/DP liposomes was adjusted to 3:1:5 respectively. The triple complex of TatC peptide/DNA/DP liposomes was incubated for 10 minutes at room temperature and used for transfection into cells. After 5 hr incubation, 300 ul/well of the OPTI-MEM medium containing 20% Fetal Bovine Serum (FBS) was added into each transfection well. Further incubation for 16 hours was carried out before measuring transfection efficiency in luciferase activity using a luciferase assay kit (Promega, USA). To check luciferase activity of the pcDNA3-luciferase vector DNA, the following procedure was adopted. Cells were washed with PBS buffer (without Mg^2+ or Ca^2+) and lysed in 100 μl/well of 1×CCLR solution (Cell culture Lysis Reagent, 25 mM Tris-phosphate [pH 7.8], 2 mM DTT, 2 mM 1,2-diaminocyclohexane-N,N,N′,N′-tetraacetic acid, 10% glycerol, 1% Triton X-100). Cell lysates was centrifuged at 12,000×g for 1 minute and 50 ul supernatant was carefully harvested without disturbing the cell pellet. The cell lysates then mixed with 20 μl Luciferase Assay reagent. Luciferase activity was tested using a luminometer (Berthold detection systems, Sirius, Germany). As a negative control, the DP liposomes alone.
# The TatC peptide/DNA (pcDNA3-luciferase vector)/LFA liposome complex was prepared as described in Example 3.1. Transfection was carried out according to the manufacturer's recommended protocol (Life Technologies, USA), and was tested for luciferase activity.
# To deteremine if enhanced transfection efficiency could be attained, a TatC Peptide/DNA/cationic liposomes triple complex were formed by mixing them in different order. […]
# K562 cells = assay: Luciferase transfection efficiency of triple complex in K562 cells; type: cell-based; conditions: TatC/DNA(pcDNA3-luc)/DP liposomes, FIG. 13B
# Description: In order to test transfection efficiency, the TatC peptide was precomplexed with the pcDNA3-luciferase vector DNA in 50 ul OPTI-MEM medium and was incubated for 5 minutes at room temperature. The DP liposomes was prepared in a 50 ul OPTI-MEM medium and added to the preformed complex of the TatC peptide and pcDNA3-luciferase vector DNA. The ratio of each component in the triple complex of the TatC peptide/DNA/DP liposomes was adjusted to 3:1:5 respectively. The triple complex of TatC peptide/DNA/DP liposomes was incubated for 10 minutes at room temperature and used for transfection into cells. After 5 hr incubation, 300 ul/well of the OPTI-MEM medium containing 20% Fetal Bovine Serum (FBS) was added into each transfection well. Further incubation for 16 hours was carried out before measuring transfection efficiency in luciferase activity using a luciferase assay kit (Promega, USA). To check luciferase activity of the pcDNA3-luciferase vector DNA, the following procedure was adopted. […]
# In order to test transfection efficiency of the triple complex, TatC peptide and liposomes (DP or LFA) were mixed with plasmid DNA in various ratios. […] Luciferase activity was then measured as described in Example 3.1.
# The TatC peptide shown in Example 2.1 was modified with RGD amino acid sequence at both N-and C-termini. […] Luciferase activity was measured for each transfected cells as described in Example 3.1. […]
# [1] = tested on: 293, HT-29, HL-60, MCF-7, A549, NC1-H1299, WI-38VA13, HepG2 and Hep3B cells; assay: Luciferase transfection efficiency of triple complex in 9 different cell lines; type: cell-based, human; conditions: various ratios
# WRT7/P2 cells = assay: Cellular uptake of FITC-labeled oligonucleotide; type: cell-based, rat; conditions: TatC peptide/DNA/LFA triple complex compared to LFA liposomes alone; FIG. 8
# Description: Next, transfection efficiency of nucleic acid by the triple complex was tested for oligonucleotides labeled with FITC at both ends. Oligonucleotides were complexed with the TatC peptide and LFA liposomes and were transfected to a rat monocytic cell line, WRT7/P2. The transfected cells were then assayed for FITC-fluorescence. We observed that cellular uptake of the oligonucleotides with the TatC peptide/DNA/LFA triple complex was much higher than delivered with LFA liposomes alone (FIG. 8). […] Therefore, the TatC peptide delivery system of the present invention may be effectively utilized for efficient delivery into cells regardless of the types of DNA to be delivered.
# kidney of SD rats = assay: In vivo delivery of LacZ plasmid by retrograde ureteral injection, X-gal staining of kidney sections; parameters: species or system rat; conditions: TatC:DNA:DP=4:1:4, retrograde injection, male SD rats, compared to DNA/liposome or DNA alone, FIG. 16
# Description: To test the transfection efficiency of the peptide/DNA/liposomes triple complex in vivo, the following experiment was performed. Male Sprague-Dawley (SD) rats (Hamamatsu, Shizuoka, Japan) were supplied from SLC and were housed in groups of 6 with free access to standard chow and water. Male SD rats, weighing 200-250 g, were used in these experiments. After anesthesia by the intraperitoneal injection of pentobarbital (5 mg/100 g body weight), the left kidney was exposed via an abdominal midline incision. Rats were subjected to ureteral ligation proximal to the left kidney, which was followed by retrograde injection of the triple complex (TatC: DNA: DP=4:1:4) using a 24 gauge catheter syringe. Kidneys were harvested 24 hours after injection of the triple complex. and embedded in a Tissue-Tek™ OCT compound (Miles, Elkhart, Ill.) under liquid nitrogen. Tissue blocks of the perfusion-fixed kidney with 4% paraformaldehyde were cryosectioned to 10 μm thickness and mounted on Poly-Prep™ slides (Sigma, St. Louise, Mo.). After dissection of individual kidneys, kidney sections were fixed with 0.05% glutaraldehyde in PBS by perfusion for 15 min, and incubated in X-gal solution (1.5 mM potassium ferricyanide, 1.5 mM potassium ferrocyanide, and 1% X-gal) at 37° C. for 4 h. Tissue sections of 4 μm were counterstained with hematoxylin and examined using a microscope at 400 fold magnification.
sequence,measurement,setting,value
RGDRKKRRQRRRPPQCRGD (RGD-TatC-RGD),luciferase activity for various peptides,HeLa cells,markedly higher luciferase activity
"RKKRRQRRRPPQ (Tat) [Tat peptide containing the NLS motif without any modification, control, reference compound]",luciferase activity for various peptides,HeLa cells,comparably low
RKKRRQRRRPPQC (TatC),transfection efficiency according to mixing order,"cells; TatC peptide and DNA mixed first, then cationic liposome (LFA), compared with other mixing orders, FIG. 2",highest
same,transfection activity (luciferase),"cells; TatC peptide/DNA/LFA liposome complex compared to LFA liposomes only, FIG. 1",higher transfection activity
same,luciferase activity,"cells; triple complex TatC peptide/DNA/DP liposomes 3:1:5, compared to DP liposomes alone, FIG. 1",significantly enhances luciferase activity
same,luciferase activity with or without 10% FBS,K562 cells,higher in medium containing serum
same,luciferase activity for various peptides,HeLa cells,markedly higher luciferase activity
same,luciferase activity with or without 10% FBS,"HeLa cells; TatC/DNA(pcDNA3-luc)/DP liposomes, HeLa, FIG. 13A",higher in medium containing serum
same,luciferase activity,"[1]; triple complex TatC peptide/DNA/DP, compared to DP liposomes alone, FIG. 6",remarkably higher luciferase activity
same,luciferase activity,"[1]; triple complex TatC peptide/DNA/LFA, compared to liposomes alone, FIG. 7",Analogous results
same,cellular uptake of FITC-labeled oligonucleotides (FITC-fluorescence),WRT7/P2 cells,much higher
same,expression of the β-galactosidase gene in kidney,kidney of SD rats,observed only in the group treated with the complex composed of TatC/DNA/liposomes
RKKRRQRRRPPQCRGDRGD (TatC-RGD-RGD),luciferase activity for various peptides,HeLa cells,markedly higher luciferase activity
"RRKRQRKRRPQP (Scrambled Tat(Sc-Tat)) [scrambled Tat peptide with random disturbance of the NLS motif, negative control, reference compound]",luciferase activity for various peptides,HeLa cells,comparably low
